Values of other authors, collected in patent US20080262061A1, “COMPOSITION AND USE OF A LIQUID FUNGICIDAL FORMULATION OF MYCLOBUTANIL OR TEBUCONAZOLE FUNGICIDE” (HELENA HOLDING COMPANY, priority 2007, published 2008).

Details: background statement

SMILES	water solubility
CC(C)(C)C(O)(CCc1ccc(Cl)cc1)Cn1cncn1 (racemic) [tebuconazole, (RS)-1-p-chlorophenyl-4,4-dimethyl-3-(1H-1,2,4-triazol-1-ylmethyl)═pentan-3-ol]	not significantly water soluble
CCCCC(C#N)(Cn1cncn1)c1ccc(Cl)cc1 (centres unmarked) [Myclobutanil, 2-p-chlorophenyl-2-(1H-1,2,4-triazol-1-ylmethyl)hexanenitrile]	not significantly water soluble
